# Experimental data published in US20090148850A1, “Methods for identifying modulators of P2RY14” (priority 2007, published 2009).
# Experiments:
# Format in all cases: cell-based
# P2RY14 [1] = molecular target: T1, P2RY14 (Homo sapiens, UniProt Q15391); experiment: FLIPR whole cell Ca2+ agonist assay, HEK cells expressing human P2RY14 and Gqi5; design: expressed in transfected cells; settings: HEK cells expressing human P2RY14 and Gqi5, FLIPR
# T1 sequence (Q15391 1-338): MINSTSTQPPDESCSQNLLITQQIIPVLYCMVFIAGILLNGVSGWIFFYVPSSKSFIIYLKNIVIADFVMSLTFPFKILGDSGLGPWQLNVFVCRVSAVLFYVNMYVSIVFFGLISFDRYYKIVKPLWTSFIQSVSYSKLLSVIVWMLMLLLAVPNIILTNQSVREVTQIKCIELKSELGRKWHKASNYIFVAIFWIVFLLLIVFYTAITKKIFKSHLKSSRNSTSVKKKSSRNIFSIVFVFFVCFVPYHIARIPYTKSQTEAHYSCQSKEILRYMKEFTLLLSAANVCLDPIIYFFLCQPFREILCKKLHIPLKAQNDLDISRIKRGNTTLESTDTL
# Text: (§1) Stable HEK clonal cell lines expressing P2RY14 and the chimeric G protein Gqi5 were constructed. The chimeric Gqi5 forces the coupling of P2RY14 through the Gq (calcium) pathway and allows for monitoring of calcium signaling using a calcium binding fluorescent dye and a FLIPR (fluorometric imaging plate reader, MDS Sciex). Vector pCEP4 comprising the chimeric Gqi5 was obtained from Molecular Devices, Sunnyvale, Calif. (Cat. No. RD-PGQI5).
# The human P2RY14 was PCR amplified from the I.M.A.G.E. clone obtained from Invitrogen, Carlsbad, Calif. […] The codon encoding glutamate at position 54 in the wild-type human P2RY14 was changed to code for lysine. […] The PCR reaction was done in two parts. In the first part, the reaction was 5 cycles at 94° C. for 30 seconds, 65° C. for 30 seconds, and 72° C. for 90 seconds. In the second part, the reaction was 25 cycles at 94° C. for 30 seconds, 70° C. for 30 seconds, 72° C. for 90 seconds. The last cycle was followed by 7 minutes at 72° C. The PCR amplified human P2RY14 was digested with KpnI and NotI and cloned into a pcDNA3.1 (+) vector previously digested with KpnI and NotI to place the DNA fragment in the proper orientation downstream of the CMV promoter. The nucleic acid encoding the human P2RY14 was under the control of the CMV promoter.
# (§2) Cells were grown in DMEM medium containing 25 mM HEPES, pH 7.4 and 10% FBS, 50 units/ml penicillin/50 μg/ml streptomycin, 2 mM glutamine and 1 mM sodium pyruvate at 37° C. in humidified air containing 5% CO2. Two days post-transfection, cells were grown under selection in the DMEM medium as indicated above and supplemented with 200 μg/ml Hygromycin B and 250 μg/ml geneticin.
# (§3) Cells were incubated overnight at 37° C. and 5% CO2 to form a monolayer. On the following day, 30 μl of fluorescent no-wash dye was added to the cell monolayer and the plate was incubated for 60 minutes at 37° C., 5% CO2.
# (§4) For agonist assays, 6.12 μl of 10× agonist solution was added to the cell/dye incubation and Ca^2+ signaling was monitored by FLIPR. For antagonist assays, 250 nl of compound in 100% DMSO was added to cell/dye mixture; following a 20 minute incubation at room temperature, 6.12 μl of 10× agonist solution at EC80 in HBSS containing 20 mM Hepes was added to cells and Ca^2+ signaling was monitored by FLIPR. Quantitation of the % stimulation or inhibition of Ca^2+ signaling by agonist or antagonist, respectively, was calculated using the Max-Min fluorescent signal detected.
# [2] = test system: simian (chimpanzee) P2RY14; experiment: FLIPR whole cell Ca2+ agonist assay, HEK cells expressing simian (chimpanzee) P2RY14 and Gqi5
# Text: as §1
# The simian (chimpanzee) P2RY14 nucleic acid fragment was synthesized based upon the Ensembl Gene ID ENSPTRG00000030093 by Bio S & T, Montreal, Quebec, Canada, to be flanked with KpnI and NotI restriction enzyme sites. […] The DNA fragment was digested with KpnI and NotI and then cloned into a pcDEF3 vector previously digested with KpnI and NotI to place the DNA fragment in the proper orientation downstream of the human EF-1a promoter. The nucleic acid encoding the simian P2RY14 was under the control of the human EF-1a promoter.
# as §2, §3, §4
# P2RY14 [3] = molecular target: T1, P2RY14; experiment: CellKey System live cell functional assay, human P2RY14; design: expressed in transfected cells; settings: HEK cells expressing human P2RY14 and Gqi5
# Method: (§5) The Cellkey System™ (MDS Sciex), a novel, live cell, label-free, real-time technology, was used to examine P2RY14 activation following agonist stimulation. The CellKey System™ is based on cellular dielectric spectroscopy (CDS) and monitors changes in impedance of the applied electrical current through the cell monolayer upon receptor activation.
# (§6) On the following day, growth medium was removed from the cell monolayer and replaced with 135 μl of HBSS pH 7.4 containing 20 mM Hepes for a 30 minutes pre-incubation period at room temperature. Baseline measurements were made for 5 minutes at 28° C. prior to ligand addition. For agonist assays, 15 μl of 10× agonist diluted in HBSS pH 7.4 containing 20 mM HEPES was added to the cell monolayer simultaneously using the 96 multichannel head from the CellKey™ System. Cellular response was monitored for 10 minutes to assess cellular response after ligand addition.
# mouse P2RY14 [4] = molecular target: T2, mouse P2RY14 (Mus musculus, UniProt Q9ESG6); experiment: CellKey System live cell functional assay, mouse P2RY14; settings: HEK cells expressing mouse P2RY14 and Gqi5
# T2 construct: expressed in transfected cells
# T2 sequence (Q9ESG6 1-338): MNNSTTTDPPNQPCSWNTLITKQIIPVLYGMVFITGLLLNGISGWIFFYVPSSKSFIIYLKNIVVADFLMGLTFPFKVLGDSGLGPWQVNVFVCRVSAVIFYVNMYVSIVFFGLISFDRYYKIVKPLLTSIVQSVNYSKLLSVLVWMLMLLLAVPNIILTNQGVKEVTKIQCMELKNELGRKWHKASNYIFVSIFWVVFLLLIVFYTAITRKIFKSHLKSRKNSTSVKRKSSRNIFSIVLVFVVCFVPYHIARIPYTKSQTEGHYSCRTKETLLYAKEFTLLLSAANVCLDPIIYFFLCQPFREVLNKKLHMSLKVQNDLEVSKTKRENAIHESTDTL
# Method: as §5, §6
# [5] = test system: HEK cells not expressing P2RY14; experiment: FLIPR Ca2+ release in HEK cells not expressing P2RY14 (specificity)
# mouse P2RY14 [6] = molecular target: T2, mouse P2RY14; experiment: FLIPR whole cell Ca2+ agonist assay, HEK cells expressing mouse P2RY14 and Gqi5
# Text: as §1
# The nucleic acid encoding the mouse P2RY14 was under the control of the CMV promoter.
# as §2, §3, §4
# [7] = test system: simian (chimpanzee) P2RY14; experiment: CellKey System live cell functional assay, simian P2RY14; settings: HEK cells expressing simian P2RY14 and Gqi5
# Method: as §5, §6
structure (smiles),measurement,setting,value
O=c1ccn([C@@H]2O[C@H](COP(=O)(O)O)[C@@H](O)[C@H]2O)c(=O)[nH]1 [UMP],activation of P2RY14 (Ca2+ signaling),P2RY14 [1],activated
same,activation of P2RY14 (Ca2+ signaling),[2],activated
same,"P2RY14 signaling (impedance, CellKey)",P2RY14 [3],mediated signaling
same,"P2RY14 signaling (impedance, CellKey)",mouse P2RY14 [4],mediated signaling
same,Ca2+ release in cells not expressing P2RY14,[5],do not stimulate Ca^2+ release
same,activation of P2RY14 (Ca2+ signaling),mouse P2RY14 [6],activated
same,"P2RY14 signaling (impedance, CellKey)",[7],mediated signaling
